For assay [1], the system named is G93A mutant SOD1 transgenic mice. Briefly: Motor neuron cell count (ChAT) in lumbar spinal cord of ALS animal model. Format: in vivo, mouse. The procedure: (§1) As a control group, non-transgenic mice were injected intraperitoneally (i.p.) with vehicle (DMSO) in the same manner for the same period of time.
Specifically, mice were sacrificed at various time points (90 days and 120 days) according to the clinical state of the mice of Example 6. Each mouse was transdermally perfused with cold 4% paraformaldehyde (PFA) following cold PBS, and lumbar spinal cord was separated. Samples were post-fixed in 4% paraformaldehyde, treated in a cold 30% sucrose solution, then freeze-protected, and then cross-sectional sections 14 μm thick were successively obtained. […] Motor neurons were quantified from ChAT-stained sections using a computer-assisted microscope (Olympus BX53) at 4× magnification, along with cellSens software. […] The fields analyzed were all ChAT+ profiles located in the ventral half of the immunostaining section clearly marked on the gray matter of each hemisphere.
In addition, to investigate the motor neuron source of the spinal cord, motor neurons of the lumbar spinal cord were observed and counted in the same manner as described in Example 9 (FIG. 9d), and real-time qRT-PCR and Western blot analysis were performed in the same manner as described in Example 11 and Example 12 to quantitatively analyze the expression of ChAT mRNA (FIG. 9e) and ChAT protein (FIG. 9f). […]

For assay [2] the test system is unchanged. Briefly: ALS animal model disease progression, survival and motor function (rotarod) analysis. Format: in vivo, mouse. On the procedure:
Specifically, all animal experiments were conducted according to the guidelines of the Animal Care Committee of Seoul National University Animal Hospital (IACUC, approval number SNU-200220-1-2). Transgenic mice expressing the human G93A mutant SOD1 gene (B6SJL-Tg(SOD1-G93A) 1 Gur/J) as an ALS animal model were purchased from Jackson Laboratory (Bar Harbor, ME, USA). Male transgenic ALS mice expressing mtSOD1(G93A) H1 strain (Jackson Laboratories, Bar Harbor, ME, USA) were crossed with female mice (B6/SJLF1). The mice were housed under standard conditions with a constant temperature of 22±1° C., relative humidity of 40%, and a 12-hour light-dark cycle, with ad libitum access to food and water. Genotypes were confirmed by polymerase chain reaction (PCR) using primers shown in [Table 1] below, and the number of transgene copies was confirmed. Next, G93A mutant SOD1 transgenic mice were divided into three stages: 60 days old (asymptomatic), 90 days old (early symptom), and 120 days old (late symptom) depending on the time point. A total of 96 mice were used in the experiment. As a control group, non-transgenic mice were used.
as §1
Specifically, the clinical condition and body weight of the mice in Example 6 were assessed three times a week starting from day 83 post-birth. Disease onset was defined as tremor of the limbs when the mouse's tail was suspended in the air, reported to be clinically associated with upper motor neuron system [S. Nagano, Y. Fujii, T. Yamamoto, M. Taniyama, K. Fukada, T. Yanagihara, et al. The efficacy of trientine or ascorbate alone compared to that of the combined treatment with these two agents in familial amyotrophic lateral sclerosis model mice Exp Neurol, 179 (2003), pp. 176-180]. The endpoint age was determined as the inability of the animal to right itself within 30 seconds after being placed on a flat surface on its side. At this point, the mouse was considered deceased [C. Zheng, I. Nennesmo, B. Fadeel, J. I. Henter Vascular endothelial growth factor prolongs survival in a transgenic mouse model of ALS Ann Neurol, 56 (2004), pp. 564-567]. The motor function of mice was assessed using a rotarod apparatus (JD-A-07M, JEUNG DO BIO & PLANT CO., LTD). Mice were trained for one week prior to recording. The mice were placed on a rotarod that started at a speed of 4 rpm and accelerated up to 40 rpm over 300 seconds, increasing by 1 rpm approximately every 8.3 seconds. The rotarod test was measured on average three times per measurement, three times per week from 83 days of age, until it was not possible to stay in rotarod for more than 10 seconds three consecutive times.
All data were expressed as the mean and the standard error of the mean (SEM) based on at least three independent experiments and as the ratio of control values. The significance of differences between groups was analyzed by Student's t-test or one-way ANOVA followed by Tukey's post host comparison. A p-value of <0.05 was considered statistically significant. The cumulative probability of symptom onset, rotarod failure, and disease endpoint was analyzed using a Kaplan Meier curve. All analyses were performed using GraphPad Prism. […]

The mark [3] stands for this setting: 250 μg/kg i.p. three times a week from 10 weeks of age, Hal TG vs DMSO TG group (FIG. 6a).

The values below come from patent US20240390377A1, “COMPOSITION FOR THE PREVENTION OR TREATMENT OF NEURODEGENERATIVE OR MOTOR NEURON DISEASES COMPRISING HALOFUGINONE AS AN ACTIVE INGREDIENT” (CURAMYS CO., LTD., priority 2022, published 2024).

Take `O=C(C[C@H]1NCCC[C@@H]1O)Cn1cnc2cc(Br)c(Cl)cc2c1=O` (racemic) [halofuginone]: the “number of ChAT-positive motor neurons in lumbar spinal cord, compared with changes at 120 days” value in assay [1] (90-day-old mice (FIG. 10b)) is “similar”. Besides, the “number of ChAT-positive motor neurons in lumbar spinal cord” value in assay [1] (120-day-old mice, compared to DMSO Non-TG group (FIG. 9d)) was “preserved similarly”. For the same compound, in assay [2] (setting [3]), the body weight entry was “no significant difference” and the “time in the rotarod” value is recorded as “significantly longer”. This compound also showed an onset of symptoms in assay [2] (250 μg/kg i.p. three times a week, mean±SD, DMSO TG group 94.2±5.7) of 113±3.6. In assay [2] (250 μg/kg i.p. three times a week, mean±SD, DMSO TG group 116.5±3.1, p<0.001), the “age of reaching rotarod failure” value stood at 124.3±3.5. This compound also registered an endpoint age in assay [2] (250 μg/kg i.p. three times a week, mean±SD, DMSO TG group 129.3±7.6) of 141.8±9.8.
